# How the values were obtained:
# [1] = molecular target: hCA IX (Homo sapiens, UniProt Q16790); assay: hCA IX enzyme inhibition assay (4-NPA hydrolysis)
# Method: (§4) Carbonic anhydrase can catalyze the hydrolysis of 4-nitrophenyl acetate (4-NPA). […] The experimental buffer consisted of 15 mmol/L 4-(2-hydroxyethyl)-1-piperazineethanesulfonic acid (HEPES) (pH = 7.40), 0.01% tetraethylene glycol monododecyl ether (Brij), and 100 mmol/L NaCl. […] Then, 18 μL of enzyme solution was transferred into 384-well plates in duplicate. Stock solutions of the inhibitors (10.0 mmol/L) were prepared using DMSO as solvent, and then diluted 1:3 with DMSO. […] Then 2.00 μL of each inhibitor was added to each well. All compounds were allowed to incubate with the enzyme for 15 min at 25 °C to form the Enzyme-Inhibitor (E-I) complex. After that, substrate 4-NPA (1.00 mmol/L, 20.00 μL, Sigma-Aldrich, St. Louis, MI, USA) was added into the E-I complex solution and incubated for 60, 90, 90 min at 25 °C, respectively.
# [2] = system: breast adenocarcinoma MDA-MB-231 cells; assay: CCK-8 cell viability assay, MDA-MB-231; format: cell-based, human; details: MDA-MB-231, normoxic and hypoxic, 48 h, Figure 5
# Method: (§1) The MDA-MB-231, HT-29 and MG-63 cell lines were provided by KeyGEN BioTECH Ltd (Nanjing, Jiangsu, China). The cells were digested and counted to prepare a cell suspension of 5.0 × 10^4 cells/mL, and then 100 μL of cell suspension was added to each well of the 96-well cell culture plate. The plates were placed in a 37 °C, 5% CO2 incubator (Corning Incorporated, Corning, New York, USA) for 24 h. The drug was diluted with the culture medium to the required concentration, ed100 μL of the corresponding drug-containing medium was added to each well, and a negative control group was set up at the same time. The 96-well cell culture plates were placed into a normoxic incubator (37 °C, 5% CO2) and hypoxic incubator (37 °C, 5% CO2, 0.5% O2, 94.5% N2) for 48 h. Finally, the 96-well plate was stained with CCK-8 and the OD value determined (λ = 450 nm).
# [3] = system: human osteosarcoma MG-63; assay: CCK-8 cell viability assay, MG-63; format: cell-based; details: hypoxic conditions
# Method: Then, considering the high inhibitory activity of 14a on the two isoforms of CA IX and XII, we evaluated the inhibitory activity of 14a on human osteosarcoma MG-63 featuring high expression of CA IX and XII.
# as §1
# [4] = system: human colon cancer HT-29 cells; assay: CCK-8 cell viability assay, HT-29; format: cell-based; details: HT-29, normoxic and hypoxic, 48 h, Figure 5
# Method: as §1
# [5] = molecular target: hCA XII (Homo sapiens, UniProt O43570); assay: hCA XII enzyme inhibition assay (4-NPA hydrolysis)
# hCA XII, sequence (O43570 25-354): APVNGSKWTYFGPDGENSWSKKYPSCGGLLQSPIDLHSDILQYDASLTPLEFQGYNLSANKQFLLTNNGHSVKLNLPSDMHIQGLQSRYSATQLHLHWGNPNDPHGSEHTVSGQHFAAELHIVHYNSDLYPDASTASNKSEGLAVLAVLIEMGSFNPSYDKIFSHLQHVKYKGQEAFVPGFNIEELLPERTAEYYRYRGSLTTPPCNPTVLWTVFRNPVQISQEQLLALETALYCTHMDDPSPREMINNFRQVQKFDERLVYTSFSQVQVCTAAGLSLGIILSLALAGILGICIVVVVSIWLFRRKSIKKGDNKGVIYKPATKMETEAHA
# Method: as §4
# [6] = molecular target: hCA II (Homo sapiens, UniProt P00918); assay: hCA II enzyme inhibition assay (4-NPA hydrolysis)
# Method: as §4
# [7] = system: MDA-MB-231; assay: Extracellular pH measurement, MDA-MB-231; format: cell-based, human; details: MDA-MB-231, 0.1 and 1 mM, normoxic and hypoxic, Figure 7
# Method: (§2) The high expression of CA IX plays an important role in the maintenance of the tumor cell microenvironment, and inhibiting its activity might have a potential impact on the pH of the tumor microenvironment. To evaluate the effect of compounds on the pH of the microenvironment, the pH values under normoxic and hypoxic conditions were determined in the presence of compounds 14b, 14h, and 14p. […] In addition, this improvement in pH was dose-dependent.
# (§3) The measurement of the change of extracellular pH referred to the reported literature. In brief, cancer cells were incubated for 12 h. After removing the medium, fresh medium was added to the plates and then incubated for 48 h under hypoxia or normoxia. The pH of the medium was measured immediately. The tested compounds were dissolved in DMSO and diluted with culture medium to the desired concentration. After the addition of tested compounds, the same procedure was repeated.
# [8] = system: HT-29; assay: Extracellular pH measurement, HT-29; format: cell-based, human; details: HT-29, 0.1 and 1 mM, normoxic and hypoxic, Figure 7
# Method: as §2, §3
IC50 [1] [nM],IC50 [5] [nM],IC50 [6] [nM],SMILES,inhibitory activity on cell viability compared with AZM [2],effect on MG-63 viability compared with AZM [3],"reduction of viability of MG-63 cells ([3]; 800 μM, 48 h)",inhibitory activity on cell viability compared with AZM [4],effect on extracellular (tumor) pH [7],effect on extracellular (tumor) pH [8]
29 ± 4.2,141 ± 5.5,141 ± 12.9,"NS(=O)(=O)c1nnc(NC(=O)c2ccc(NC(=O)CCCC(=O)N[C@@H]3O[C@H](CO)[C@@H](O)[C@H](O)[C@H]3O)cc2)s1 [Compound 14a, N^1-(4-((5-Sulfamoyl-1,3,4-thiadiazol-2-yl)carbamoyl)phenyl)-N^5-((2R,3R,4S,5S,6R)-3,4,5-trihydroxy-6-(hydroxymethyl)tetrahydro-2H-pyran-2-yl)glutaramide]",better than those of the positive control drug AZM,significantly better than that of the positive control AZM,approximately 30%,better than those of the positive control drug AZM,–,–
29 ± 1.5,56 ± 8.5,80.3 ± 11.5,"NS(=O)(=O)c1nnc(NC(=O)c2cccc(NC(=O)CCCC(=O)N[C@@H]3O[C@H](CO)[C@@H](O)[C@H](O)[C@H]3O)c2)s1 [Compound 14b, N^1-(3-((5-Sulfamoyl-1,3,4-thiadiazol-2-yl)carbamoyl)phenyl)-N^5-((2R,3R,4S,5S,6R)-3,4,5-trihydroxy-6-(hydroxymethyl)tetrahydro-2H-pyran-2-yl)glutaramide]",better than those of the positive control drug AZM,–,–,better than those of the positive control drug AZM,increased tumor pH to varying degrees,increased tumor pH to varying degrees
68.8 ± 10.2,84.9 ± 7.6,272 ± 9,"COc1cc(C(=O)Nc2nnc(S(N)(=O)=O)s2)ccc1NC(=O)CCCC(=O)N[C@@H]1O[C@H](CO)[C@@H](O)[C@H](O)[C@H]1O [Compound 14h, N^1-(2-Methoxy-4-((5-sulfamoyl-1,3,4-thiadiazol-2-yl)carbamoyl)phenyl)-N^5-((2R,3R,4S,5S,6R)-3,4,5-trihydroxy-6-(hydroxymethyl)tetrahydro-2H-pyran-2-yl)glutaramide]",better than those of the positive control drug AZM,–,–,better than those of the positive control drug AZM,increased tumor pH to varying degrees,increased tumor pH to varying degrees
47.9 ± 7.1,42.3 ± 9.4,332 ± 16.8,"COc1cc(C(=O)Nc2nnc(S(N)(=O)=O)s2)ccc1NC(=O)CCC(=O)N[C@@H]1O[C@H](CO)[C@@H](O)[C@H](O)[C@H]1O [Compound 14p, N^1-(2-Methoxy-4-((5-sulfamoyl-1,3,4-thiadiazol-2-yl)carbamoyl)phenyl)-N^4-((2R,3R,4S,5S,6R)-3,4,5-trihydroxy-6-(hydroxymethyl)tetrahydro-2H-pyran-2-yl)succinimide]",better than those of the positive control drug AZM,–,–,better than those of the positive control drug AZM,increased tumor pH to varying degrees,increased tumor pH to varying degrees

# — article PMC8196973, “Synthesis, Molecular Docking Analysis and Biological Evaluations of Saccharide-Modified Thiadiazole Sulfonamide Derivatives” (International Journal of Molecular Sciences, 2021)
